Measurements published in the supplement of paper PMC13207355.

What was measured:
Conditions in all cases: exposure time: 72 h
E57 [1] = patient-derived glioblastoma stem cells of mesenchymal subtype; assay: surviving fraction (nuclei count normalised to DMSO); higher = more cells surviving (less toxic)
E28 [2] = patient-derived glioblastoma stem cells of classical subtype; assay: as above
E31 [3] = patient-derived glioblastoma stem cells of proneural subtype; assay: as above
E34 [4] = patient-derived glioblastoma stem cells of proneural subtype; assay: as above
E21 [5] = patient-derived glioblastoma stem cells of mesenchymal subtype; assay: as above
FT3469 [6] = normal neural stem cell line; assay: as above
E13 [7] = patient-derived glioblastoma stem cells of classical subtype; assay: as above
E57 [8] = assay: phenotypic distance (Euclidean, principal components) from DMSO controls (arbitrary units); higher = stronger morphological change
E28 [9] = assay: as above
E31 [10] = assay: as above
E34 [11] = assay: as above
E21 [12] = assay: as above
FT3469 [13] = assay: as above
E13 [14] = assay: as above
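Throughout, for phenotypic distance (Euclidean, principal components) from DMSO controls: cell Painting imaging in 384-well plates, CellProfiler features reduced to at least 20 principal components, Euclidean distance versus same-plate DMSO vehicle wells (0.1% v/v), median over six images per well.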
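Throughout, for surviving fraction (nuclei count normalised to DMSO): nuclei counted by high-content imaging of Hoechst-stained cells in laminin-coated 384-well plates, relative to 0.1% DMSO vehicle wells, with staurosporine as cell-death control.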

CC(C)C[C@H](NC(=O)CNC(=O)c1cc(Cl)ccc1Cl)B1OC(=O)C(CC(=O)O)(CC(=O)O)O1 [MLN9708]
Conditions	phenotypic distance	surviving fraction
E13 [7], 4.1 nM	–	0.0208
E13 [7], 12.3 nM	–	0.00954
E13 [7], 37 nM	–	0.0104
E13 [7], 111.1 nM	–	0.00174
E13 [7], 333.3 nM	–	0.00347
E13 [7], 1000 nM	–	0.00607
E13 [7], 3000 nM	–	0.000868
E13 [14], 4.1 nM	9.36	–
E13 [14], 12.3 nM	9.93	–
E13 [14], 37 nM	9	–
E13 [14], 111.1 nM	12.2	–
E13 [14], 333.3 nM	10.8	–
E13 [14], 1000 nM	10.1	–
E13 [14], 3000 nM	16.2	–
E21 [5], 4.1 nM	–	0.0299
E21 [5], 12.3 nM	–	0.0187
E21 [5], 37 nM	–	0.0103
E21 [5], 111.1 nM	–	0.0103
E21 [5], 333.3 nM	–	0.0084
E21 [5], 1000 nM	–	0.00373
E21 [5], 3000 nM	–	0.000933
E21 [12], 4.1 nM	7.66	–
E21 [12], 12.3 nM	7.71	–
E21 [12], 37 nM	11.9	–
E21 [12], 111.1 nM	7.64	–
E21 [12], 333.3 nM	11.8	–
E21 [12], 1000 nM	11.7	–
E21 [12], 3000 nM	15.7	–
E28 [2], 4.1 nM	–	0.244
E28 [2], 12.3 nM	–	0.239
E28 [2], 37 nM	–	0.158
E28 [2], 111.1 nM	–	0.0898
E28 [2], 333.3 nM	–	0.0988
E28 [2], 1000 nM	–	0.0719
E28 [2], 3000 nM	–	0.0719
E28 [9], 4.1 nM	3.84	–
E28 [9], 12.3 nM	3.91	–
E28 [9], 37 nM	4.06	–
E28 [9], 111.1 nM	7.19	–
E28 [9], 333.3 nM	5.5	–
E28 [9], 1000 nM	5.6	–
E28 [9], 3000 nM	6.86	–
E31 [3], 4.1 nM	–	0.082
E31 [3], 12.3 nM	–	0.0803
E31 [3], 37 nM	–	0.0151
E31 [3], 111.1 nM	–	0.00335
E31 [3], 333.3 nM	–	0.00669
E31 [3], 1000 nM	–	0.00335
E31 [3], 3000 nM	–	0.00669
E31 [10], 4.1 nM	5.67	–
E31 [10], 12.3 nM	7.74	–
E31 [10], 37 nM	9.26	–
E31 [10], 111.1 nM	14.5	–
E31 [10], 333.3 nM	11.4	–
E31 [10], 1000 nM	13	–
E31 [10], 3000 nM	12.3	–
E34 [4], 4.1 nM	–	0.307
E34 [4], 12.3 nM	–	0.293
E34 [4], 37 nM	–	0.123
E34 [4], 111.1 nM	–	0.0439
E34 [4], 333.3 nM	–	0.064
E34 [4], 1000 nM	–	0.0421
E34 [4], 3000 nM	–	0.0549
E34 [11], 4.1 nM	5.41	–
E34 [11], 12.3 nM	6.29	–
E34 [11], 37 nM	7.18	–
E34 [11], 111.1 nM	10.9	–
E34 [11], 333.3 nM	8.93	–
E34 [11], 1000 nM	12.6	–
E34 [11], 3000 nM	10.5	–
E57 [1], 4.1 nM	–	0.0256
E57 [1], 12.3 nM	–	0.0162
E57 [1], 37 nM	–	0.011
E57 [1], 111.1 nM	–	0.00523
E57 [1], 333.3 nM	–	0.00523
E57 [1], 1000 nM	–	0.00366
E57 [1], 3000 nM	–	0.0105
E57 [8], 4.1 nM	11.8	–
E57 [8], 12.3 nM	12.3	–
E57 [8], 37 nM	11.3	–
E57 [8], 111.1 nM	10.8	–
E57 [8], 333.3 nM	14.4	–
E57 [8], 1000 nM	8.37	–
E57 [8], 3000 nM	8.49	–
FT3469 [6], 4.1 nM	–	0.412
FT3469 [6], 12.3 nM	–	0.492
FT3469 [6], 37 nM	–	0.439
FT3469 [6], 111.1 nM	–	0.445
FT3469 [6], 333.3 nM	–	0.306
FT3469 [6], 1000 nM	–	0.156
FT3469 [6], 3000 nM	–	0.212
FT3469 [13], 4.1 nM	3.13	–
FT3469 [13], 12.3 nM	3.57	–
FT3469 [13], 37 nM	5.22	–
FT3469 [13], 111.1 nM	6.65	–
FT3469 [13], 333.3 nM	7.14	–
FT3469 [13], 1000 nM	7.83	–
FT3469 [13], 3000 nM	8.15	–

NCCCP(=O)(O)O [3-Aminopropylphosphonic acid]
Conditions	phenotypic distance	surviving fraction
E13 [7], 4.1 nM	–	0.801
E13 [7], 12.3 nM	–	0.888
E13 [7], 37 nM	–	1
E13 [7], 111.1 nM	–	0.872
E13 [7], 333.3 nM	–	0.982
E13 [7], 1000 nM	–	0.884
E13 [7], 3000 nM	–	0.962
E13 [14], 4.1 nM	0.873	–
E13 [14], 12.3 nM	0.485	–
E13 [14], 37 nM	1.1	–
E13 [14], 111.1 nM	0.795	–
E13 [14], 333.3 nM	1.09	–
E13 [14], 1000 nM	0.46	–
E13 [14], 3000 nM	0.816	–
E21 [5], 4.1 nM	–	0.806
E21 [5], 12.3 nM	–	0.98
E21 [5], 37 nM	–	0.902
E21 [5], 111.1 nM	–	0.886
E21 [5], 333.3 nM	–	1.08
E21 [5], 1000 nM	–	1
E21 [5], 3000 nM	–	0.86
E21 [12], 4.1 nM	1.29	–
E21 [12], 12.3 nM	5.29	–
E21 [12], 37 nM	0.988	–
E21 [12], 111.1 nM	1.15	–
E21 [12], 333.3 nM	1.08	–
E21 [12], 1000 nM	0.704	–
E21 [12], 3000 nM	0.925	–
E28 [2], 4.1 nM	–	0.762
E28 [2], 12.3 nM	–	0.907
E28 [2], 37 nM	–	0.775
E28 [2], 111.1 nM	–	0.984
E28 [2], 333.3 nM	–	0.931
E28 [2], 1000 nM	–	0.888
E28 [2], 3000 nM	–	0.713
E28 [9], 4.1 nM	0.627	–
E28 [9], 12.3 nM	0.887	–
E28 [9], 37 nM	1.05	–
E28 [9], 111.1 nM	0.933	–
E28 [9], 333.3 nM	1.07	–
E28 [9], 1000 nM	0.732	–
E28 [9], 3000 nM	1.53	–
E31 [3], 4.1 nM	–	1.14
E31 [3], 12.3 nM	–	0.932
E31 [3], 37 nM	–	1
E31 [3], 111.1 nM	–	0.983
E31 [3], 333.3 nM	–	1.05
E31 [3], 1000 nM	–	0.771
E31 [3], 3000 nM	–	0.945
E31 [10], 4.1 nM	0.65	–
E31 [10], 12.3 nM	0.816	–
E31 [10], 37 nM	0.948	–
E31 [10], 111.1 nM	0.488	–
E31 [10], 333.3 nM	0.824	–
E31 [10], 1000 nM	0.792	–
E31 [10], 3000 nM	0.929	–
E34 [4], 4.1 nM	–	0.923
E34 [4], 12.3 nM	–	1.06
E34 [4], 37 nM	–	0.998
E34 [4], 111.1 nM	–	1.09
E34 [4], 333.3 nM	–	1.08
E34 [4], 1000 nM	–	1.05
E34 [4], 3000 nM	–	1.05
E34 [11], 4.1 nM	0.981	–
E34 [11], 12.3 nM	3.38	–
E34 [11], 37 nM	1.08	–
E34 [11], 111.1 nM	0.945	–
E34 [11], 333.3 nM	0.527	–
E34 [11], 1000 nM	4.28	–
E34 [11], 3000 nM	0.559	–
E57 [1], 4.1 nM	–	0.924
E57 [1], 12.3 nM	–	0.912
E57 [1], 37 nM	–	1.01
E57 [1], 111.1 nM	–	1.06
E57 [1], 333.3 nM	–	0.959
E57 [1], 1000 nM	–	0.941
E57 [1], 3000 nM	–	1.07
E57 [8], 4.1 nM	1.04	–
E57 [8], 12.3 nM	0.788	–
E57 [8], 37 nM	0.764	–
E57 [8], 111.1 nM	0.744	–
E57 [8], 333.3 nM	0.772	–
E57 [8], 1000 nM	1.04	–
E57 [8], 3000 nM	1.21	–
FT3469 [6], 4.1 nM	–	0.65
FT3469 [6], 12.3 nM	–	0.955
FT3469 [6], 37 nM	–	0.892
FT3469 [6], 111.1 nM	–	0.941
FT3469 [6], 333.3 nM	–	1.09
FT3469 [6], 1000 nM	–	1.08
FT3469 [6], 3000 nM	–	1.06
FT3469 [13], 4.1 nM	1.45	–
FT3469 [13], 12.3 nM	0.83	–
FT3469 [13], 37 nM	0.983	–
FT3469 [13], 111.1 nM	0.685	–
FT3469 [13], 333.3 nM	0.68	–
FT3469 [13], 1000 nM	0.784	–
FT3469 [13], 3000 nM	2.45	–
